In patent publication US6284914A, “Highly water-soluble metalloproteinase inhibitors” (Fuji Yakuhin Kogyo Kabushiki Kaisha, priority 1995, dated 2001) one finds IC50, solubility and Solubility in water data, which are given here for 11 compounds.

In brackets after ≈: the same amount, converted by molar mass. Structures can show the parent of a compound that is named as a salt. Where two headings read alike, the source gives them in different places.

One data set deals with T1, TNF-α converting enzyme (Homo sapiens, UniProt P78536).
T1 construct: Human monocyte derived leukemia cell-line U937; endogenous in cells; host or cells: U937 (PMA-differentiated, LPS-stimulated)
T1 sequence (P78536 215-824): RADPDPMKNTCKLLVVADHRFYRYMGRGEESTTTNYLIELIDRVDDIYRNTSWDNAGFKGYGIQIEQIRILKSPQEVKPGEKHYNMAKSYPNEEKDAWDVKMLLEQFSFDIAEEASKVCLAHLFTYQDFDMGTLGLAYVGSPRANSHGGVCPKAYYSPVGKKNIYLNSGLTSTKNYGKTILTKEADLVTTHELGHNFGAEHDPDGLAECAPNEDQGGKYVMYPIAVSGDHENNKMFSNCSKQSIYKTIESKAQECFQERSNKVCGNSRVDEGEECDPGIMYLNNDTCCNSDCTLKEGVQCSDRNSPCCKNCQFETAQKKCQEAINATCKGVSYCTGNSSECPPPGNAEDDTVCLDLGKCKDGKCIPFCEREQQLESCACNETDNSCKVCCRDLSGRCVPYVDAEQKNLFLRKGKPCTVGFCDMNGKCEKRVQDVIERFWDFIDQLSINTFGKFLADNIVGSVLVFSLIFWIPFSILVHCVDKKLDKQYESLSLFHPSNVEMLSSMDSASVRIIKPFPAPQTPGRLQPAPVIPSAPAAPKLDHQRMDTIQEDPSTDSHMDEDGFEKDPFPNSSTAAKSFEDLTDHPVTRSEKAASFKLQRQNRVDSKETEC
Kind of data set: Assay for Suppression of TNF-α Production (LPS-stimulated U937 cells). It counts as cell-based. Conditions: U937 cells (PMA-differentiated), Lipopoplysaccaride 0.1 μg/ml, 37° C., 6 hours, TNF-α in supernatant; read-out: Inhibitory activities for TNF-α converting enzyme, IC50 value. On the procedure: Human monocyte derived leukemia cell-line U937 [5% bovine fetal serum (Men-eki Seibutsu Ken) was added to RPMI1640 (Nissui Seiyaku) and incubated in a 5% CO2 incubation chamber at 37° C., whereby 1×10^6 cells/1 ml were placed into each well of a multi-well plate and then incubated in presence of Phorbol 12-myristate 13-acetate (10^-7 M, Wako Junyaku) overnight and differentiated to macrophage like cells.] was added with Lipopoplysaccaride (0.1 μg/ml, Sigma) derived from E.coli 0127:B8 strain alone or together with a compound in Examples, and incubated in a 5% CO2 incubation chamber at 37° C. for 6 hours. After the incubation, the culture medium was taken and centrifuged at 3000 g for 10 min., whereby the supernatant was diluted with purified water forthe measurement using the TNF-α measurement kit (Genzyme) (Table 2).

The target in a further data set is T2, stromelysin (MMP-3) (Homo sapiens, UniProt P08254).
T2 construct: endogenous in cells; host or cells: human fibroblast
T2 sequence (P08254 100-477): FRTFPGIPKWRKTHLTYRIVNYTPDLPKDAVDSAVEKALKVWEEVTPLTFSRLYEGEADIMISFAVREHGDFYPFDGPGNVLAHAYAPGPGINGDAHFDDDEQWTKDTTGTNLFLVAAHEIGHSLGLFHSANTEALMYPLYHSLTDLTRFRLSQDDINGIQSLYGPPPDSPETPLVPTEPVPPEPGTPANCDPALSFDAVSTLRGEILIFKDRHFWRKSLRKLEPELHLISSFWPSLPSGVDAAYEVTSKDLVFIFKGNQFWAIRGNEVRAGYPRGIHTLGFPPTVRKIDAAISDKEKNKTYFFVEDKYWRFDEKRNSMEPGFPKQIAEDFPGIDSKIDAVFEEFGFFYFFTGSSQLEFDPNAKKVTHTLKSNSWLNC
Kind of data set: Assay for Stromelysin Inhibitory Activity (MMP-3). Conditions: fluorescein-labeled casein substrate, 37° C., 2 hours, pH 7.8; read-out: Inhibitory activities for matrix metalloproeinases (MMPs), MMP-3, IC50 value. It counts as biochemical. On the procedure:
(§1) Inhibitory activities of the compounds represented by the general formula (I) according to the invention for collagenase (metalloproteinase concerned with a tissue destruction) derived from human fibroblast were tested by the method of Y. Murawaki et al., [Journal of Hepatology, 18, p. 328-334 (1993)], and their inhibitory activities for stromelysin derived from human fibroblast were measured by the method of S. S. Twining et al., [Anal. Biochem., 143, p. 30 (1984)].
Inhibitory activities for stromelysin (MMP-3) of the compounds of Examples and comparative compounds were measured by the method of S. S. Twining et al., [Anal. Biochem., 143, p. 30 (1984)]. The latent prostromelysin was incubated with human plasmin (20 μg/ml) for the activation at 37° C. for 2 hours, and then the incubate was added with diisopropyl fluorophosphate solution (2.8 mg/ml) to stop the reaction. The assay was done by using casein labeled with fluorescein as the substrate. The activated stromelysin was added to a substrate solution (1 mg/ml) in Tris HCl buffer (50 mM, pH 7.8) containing calcium chloride (10 mM). The obtained solution was incubated at37° C. for 2 hours. The enzyme digestion forthesubstrate was stopped by adding 5% trichloroacetic acid. The indigested substrate was sedimented by centrifuging at 3000 g for 20 min. The supernatant was taken and added with Tris HCl buffer (0.5 M, pH 8.5), whereby its intensity of fluorescence was determined by the excitation wavelength (495 nm) and the measured wavelength (520 nm), and the inhibitory activity was obtained. IC50 is a concentration of a compound assayed in the digesting enzyme, whereby the splitting of the substrate was decreased to 50% compared with that attained by the enzyme alone.

The target of a further data set is T3, collagenase (MMP-1) (Homo sapiens, UniProt P03956).
T3 construct: endogenous in cells; host or cells: human fibroblast
T3 sequence (P03956 100-469): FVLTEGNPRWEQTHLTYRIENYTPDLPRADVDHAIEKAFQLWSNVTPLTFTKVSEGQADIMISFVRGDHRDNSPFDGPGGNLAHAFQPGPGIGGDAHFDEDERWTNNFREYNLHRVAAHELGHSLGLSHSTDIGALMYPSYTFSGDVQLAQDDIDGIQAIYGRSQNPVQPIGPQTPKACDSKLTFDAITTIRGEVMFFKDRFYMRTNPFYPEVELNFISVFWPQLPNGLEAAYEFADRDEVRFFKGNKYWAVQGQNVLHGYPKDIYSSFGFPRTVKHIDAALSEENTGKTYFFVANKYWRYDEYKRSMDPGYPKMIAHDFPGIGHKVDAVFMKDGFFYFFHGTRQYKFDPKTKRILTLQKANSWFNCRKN
Kind of data set: Assay for Collagenase Inhibitory Activity (MMP-1). It is filed as biochemical. The procedure: as §1
Inhibitory activities for collagenase (MMP-1) of the compounds of Examples and comparative compounds were measured by the method of Y. Murawaki et al., [Journal of Hepatology, 18, p. 328-334 (1993)]. The latent procollagenase was activated by incubating with mercury aminophenylacetate (2 mM) at 35° C. for 2 hours. The assay was done by using bovine type I collagen labeled with fluorescein as a substrate. The activated collagenase was added to the substrate solution (0.5 mg/ml) in Tris HCl buffer (50 mM, pH 7.5) containing sodium chloride (0.4 M) and calcium chloride (10 mM). The obtained solution was incubated at 35° C. for 2 hours. The enzyme digestion was stopped by the addition of o-phenanthroline (80 mM). The mixture was added with pig spleen elastase solution (25 μg/ml) in the above Tris HCl buffer, and incubated 37° C. for 10 min. The obtained solution was added with 70% ethanol and Tris HCl buffer (170 mM, pH 9.5) containing sodium chloride (0.61 M), whereby the indigested substrate was sedimented by centrifuging at 3000 g for 20 min. The supernatant was taken, and its intensity of fluorescence was determined by the excitation wavelength (495 nm) and the measured wavelength (520 nm), and the inhibitory activity was obtained. IC50 is a concentration of a compound assayed in the digesting enzyme, whereby the splitting of the substrate was decreased to 50% compared with that attained by the enzyme alone.

Data set [1] can be described thus: Measurement of Solubility in Water. It is filed as physicochemical. Conditions: distilled water, 20±5° C., 30 min., checked by eye. The procedure: A compound of Examples or a comparative compound was added to distilled water and shaken vigorously at 20±5° C. for 30 seconds at 5 min. interval. After 30 min., it was checked by watching with eye whether the compound was dissolved or not.

The mark [2] stands for this setting: fluorescein-labeled bovine type I collagen substrate, 35° C., 2 hours, pH 7.5, read-out: Inhibitory activities for matrix metalloproeinases (MMPs), MMP-1, IC50 value.

Consider `CCC(=N)NCc1ccc(C[C@H](NC(=O)[C@H](CC(C)C)C(CCCc2ccccc2)C(=O)NO)C(=O)NC)cc1` (single isomer, unassigned) [Example 11, N-[4-(N-Hydroxyamino)-2(R)-isobutyl-3(R or S)-(3-phenyltrimethylene)succinyl]-L-4'-propionimidoyliminomethylenephenylalanine-N-methylamide Monoacetate], for which the IC50 was found to be 400 nM on TNF-α converting enzyme, 9 nM on stromelysin (MMP-3) and 5.8 nM on collagenase (MMP-1) (setting [2]).
In data set [1] (water), `CCCOC[C@H](C(=O)N[C@@H](Cc1ccc(OC)cc1)C(=O)NC)[C@H](CSC(C)C)C(=O)NO` [Comparative Compound 4, N-[4-(N-Hydroxyamino)-2(R)-n-propyloxymethylene-3(S)-isopropylthiomethylenesuccinyl]-O-methyl-L-tyrosine-N-methylamide, reference compound] returned a solubility at 0.5 h of less than 1 mg/mL. For the same compound, the results for the IC50 at stromelysin (MMP-3) and on collagenase (MMP-1) (setting [2]) were 100 nM and 11 nM, respectively.
On to `CNC(=O)[C@H](Cc1ccc(OS(=O)(=O)O)cc1)NC(=O)[C@H](CC(C)C)C(CCCc1ccccc1)C(=O)NO` (single isomer, unassigned) [Example 3 (Isomer B), N-[4-(N-Hydroxyamino)-2(R)-isobutyl-3(R or S)-(3-phenyltrimethylene)succinyl]-O-sulfo-L-tyrosine-N-methylamide, Monosodium Salt], for which, in data set [1] (Monosodium Salt), the Solubility in water came out at 150 mg/mL. For the same compound, the IC50 at stromelysin (MMP-3) is 5.4 nM; at collagenase (MMP-1) (setting [2]), 0.4 nM.
In the case of `CNC(=O)[C@H](Cc1ccc(S(=O)(=O)O)cc1)NC(=O)[C@H](CC(C)C)C(CCCc1ccccc1)C(=O)NO` (stereo partly drawn) [Example 4, N-[4-(N-Hydroxyamino)-2(R)-isobutyl-3(RS)-(3-phenyltrimethylene)succinyl]-L-4'-sulfophenylalanine-N-methylamide, Monosodium Salt], the solubility at 0.5 h in data set [1] (water) was 150 mg/mL. The IC50 on TNF-α converting enzyme was found to be 510 nM.
The compound `CNC(=O)[C@H](Cc1ccc(S(=O)(=O)O)cc1)NC(=O)[C@H](CC(C)C)C(CSc1cccs1)C(=O)NO` (single isomer, unassigned) [Example 5 (Isomer A), N-[4-(N-Hydroxyamino)-2(R)-isobutyl-3(R or S)-(thienylthiomethylene)succinyl]-L-4'-sulfophenylalanine-N-methylamide, Monosodium Salt] gave a solubility at 0.5 h in data set [1] (water) greater than 320 mg/mL. The IC50 at stromelysin (MMP-3) and at collagenase (MMP-1) (setting [2]) was 8 nM throughout.
The compound `CNC(=O)[C@H](Cc1ccc(OP(=O)(O)O)cc1)NC(=O)C(CC(=O)NO)CC(C)C` (single isomer, unassigned) [Example 9, N-[4-(N-Hydroxyamino)-2(R or S)-isobutylsuccinyl]-O-phospho-L-tyrosine-N-methylamide, Disodium Salt] had a solubility at 0.5 h in data set [1] greater than 200 mg/mL. Further, the IC50 was found to be 400 nM on stromelysin (MMP-3) and 17 nM against collagenase (MMP-1).
For `CNC(=O)[C@H](Cc1ccc(NC(=N)N)cc1)NC(=O)[C@H](CC(C)C)[C@H](O)C(=O)NO` [Example 16, N-[4-(N-Hydroxyamino)-2(R)-isobutyl-3(S)-hydroxysuccinyl]-L-4'-guanidophenylalanine-N-methylamide Monoacetate], at TNF-α converting enzyme, the IC50 is 7000 nM.
Regarding `CCCOC[C@H](C(=O)N[C@@H](Cc1ccc(S(=O)(=O)[O-])cc1)C(=O)NC)C(CSC(C)C)C(=O)NO.[Na+]` (mixture of isomers) [Example 6, N-[4-(N-Hydroxyamino)-2(R)-n-propyloxymethylene-3(RS)-isopropylthiomethylenesuccinyl]-L-4'-sulfophenylalanine-N-methylamide, Monosodium Salt], the Solubility in water in data set [1] is greater than 120 mg/mL. The IC50 at stromelysin (MMP-3) was 280 nM; at collagenase (MMP-1) (setting [2]) it was 20 nM.
Take `CNC(=O)[C@H](Cc1cccc(OS(=O)(=O)O)c1)NC(=O)[C@H](CC(C)C)C(CCCc1ccccc1)C(=O)NO` (single isomer, unassigned) [Example 15, N-[4-(N-Hydroxyamino)-2(R)-isobutyl-3(R or S)-(3-phenyltrimethylene)succinyl]-O-sulfo-L-meta-tyrosine-N-methylamide, Monosodium Salt]: the solubility at 0.5 h in data set [1] (water) amounted to 120 mg/mL. Further, the IC50 at stromelysin (MMP-3) came to 5.8 nM; on collagenase (MMP-1) (setting [2]), 8 nM.
In data set [1] (water), `CNC(=O)[C@H](Cc1ccc(NC(=N)N)cc1)NC(=O)[C@H](CC(C)C)C(CCCc1ccccc1)C(=O)NO` (single isomer, unassigned) [Example 8, N-[4-(N-Hydroxyamino)-2(R)-isobutyl-3(R or S)-(3-phenyltrimethylene)succinyl]-L-4'-guanidophenylalanine-N-methylamideMonoacetate] gave a solubility at 0.5 h of 30 mg/mL (≈ 57.2 mM). Also, the IC50 on TNF-α converting enzyme was determined as 98 nM; on stromelysin (MMP-3), 6 nM; on collagenase (MMP-1) (setting [2]) it was 6 nM.
`CNC(=O)[C@H](Cc1ccc(S(=O)(=O)O)cc1)NC(=O)[C@H](CC(C)C)C(CSc1cccs1)C(=O)NO` (single isomer, unassigned) [Example 5, N-[4-(N-Hydroxyamino)-2(R)-isobutyl-3(R or S)-(thienylthiomethylene)succinyl]-L-4'-sulfophenylalanine-N-methylamide, Monosodium Salt]: on TNF-α converting enzyme, the IC50 was 500 nM.

The term IC50 denotes the midpoint of a concentration-inhibition curve. The term solubility denotes how much of the substance goes into solution per volume. A lower solubility goes with little dissolved substance.
